The record followed here is ChEMBL document CHEMBL5291721, “A preclinical secondary pharmacology resource illuminates target-adverse drug reaction associations of marketed drugs” (Nat Commun, 2023).

Each structure is given as a SMILES string. Bounds are passed on as bounds.

Assay [1] has as its target Histamine H3 receptor (Homo sapiens, UniProt Q9Y5N1).
Assay [2] addresses T1, Adenosine receptor A1 (Homo sapiens, UniProt P30542).
T1 sequence (P30542 whole entry): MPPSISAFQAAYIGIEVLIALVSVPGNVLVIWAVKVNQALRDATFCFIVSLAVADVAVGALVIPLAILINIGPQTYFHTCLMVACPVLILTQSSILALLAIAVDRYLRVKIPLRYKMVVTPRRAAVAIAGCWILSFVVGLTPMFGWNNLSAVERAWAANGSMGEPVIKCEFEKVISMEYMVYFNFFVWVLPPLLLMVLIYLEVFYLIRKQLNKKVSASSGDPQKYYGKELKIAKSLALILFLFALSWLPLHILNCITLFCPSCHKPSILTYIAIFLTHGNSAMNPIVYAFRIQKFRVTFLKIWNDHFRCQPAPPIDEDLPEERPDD

Assay [3] has as its target 5-hydroxytryptamine receptor 2A (Homo sapiens, UniProt P28223). It is filed as functional, cell-based.
Assay [4] deals with Vasopressin V1a receptor (Homo sapiens, UniProt P37288).
Sequence of Vasopressin V1a receptor (P37288 whole entry): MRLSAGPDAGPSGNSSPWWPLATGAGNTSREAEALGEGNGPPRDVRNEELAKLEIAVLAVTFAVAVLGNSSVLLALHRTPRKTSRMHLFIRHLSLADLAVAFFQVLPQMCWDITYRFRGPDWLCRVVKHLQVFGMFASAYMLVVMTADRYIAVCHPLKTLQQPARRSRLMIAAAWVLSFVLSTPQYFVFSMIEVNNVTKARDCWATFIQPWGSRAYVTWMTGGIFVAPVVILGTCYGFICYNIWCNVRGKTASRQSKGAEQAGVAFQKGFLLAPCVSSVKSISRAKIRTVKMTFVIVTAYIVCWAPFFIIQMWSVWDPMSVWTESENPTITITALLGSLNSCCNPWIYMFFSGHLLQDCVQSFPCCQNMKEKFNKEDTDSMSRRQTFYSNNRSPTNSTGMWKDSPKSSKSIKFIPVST
In assay [5] the target is T2, Gastrin/cholecystokinin type B receptor (Homo sapiens, UniProt P32239).
T2 sequence (P32239 whole entry): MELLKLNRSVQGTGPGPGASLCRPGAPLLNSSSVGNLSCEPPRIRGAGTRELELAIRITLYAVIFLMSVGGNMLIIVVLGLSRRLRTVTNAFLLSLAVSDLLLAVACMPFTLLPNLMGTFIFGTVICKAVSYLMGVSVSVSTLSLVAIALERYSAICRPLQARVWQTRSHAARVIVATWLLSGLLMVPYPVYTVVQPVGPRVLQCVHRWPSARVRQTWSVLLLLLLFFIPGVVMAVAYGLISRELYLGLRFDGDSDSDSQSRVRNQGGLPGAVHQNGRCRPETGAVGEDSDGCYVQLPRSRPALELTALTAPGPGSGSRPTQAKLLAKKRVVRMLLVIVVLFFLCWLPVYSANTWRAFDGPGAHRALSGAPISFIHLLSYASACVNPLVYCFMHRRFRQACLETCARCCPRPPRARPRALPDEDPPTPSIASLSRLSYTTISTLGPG

Assay [6] has as its target Cannabinoid receptor 1 (Homo sapiens, UniProt P21554). Type of assay: functional, cell-based.
Assay [7] has as its target Vasopressin V2 receptor (Homo sapiens, UniProt P30518).
The target of assay [8] is T3, 5-hydroxytryptamine receptor 3A (Homo sapiens, UniProt P46098).
T3 sequence (P46098 whole entry): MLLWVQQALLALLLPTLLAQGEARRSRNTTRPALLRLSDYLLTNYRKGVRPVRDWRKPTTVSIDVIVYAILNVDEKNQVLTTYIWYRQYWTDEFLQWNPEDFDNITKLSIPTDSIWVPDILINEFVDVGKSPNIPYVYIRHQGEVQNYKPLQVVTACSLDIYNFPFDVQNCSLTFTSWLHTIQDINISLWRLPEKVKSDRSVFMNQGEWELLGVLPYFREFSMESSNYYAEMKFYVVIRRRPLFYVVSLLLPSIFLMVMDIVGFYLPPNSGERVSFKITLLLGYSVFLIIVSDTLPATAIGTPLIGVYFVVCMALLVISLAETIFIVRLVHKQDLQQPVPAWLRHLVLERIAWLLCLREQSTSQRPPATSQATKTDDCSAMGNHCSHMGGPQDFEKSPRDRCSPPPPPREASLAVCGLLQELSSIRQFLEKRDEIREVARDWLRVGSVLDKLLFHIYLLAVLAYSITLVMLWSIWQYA
Type of assay: functional.

Assay [9] deals with T4, Muscarinic acetylcholine receptor M1 (Homo sapiens, UniProt P11229).
T4 sequence (P11229 whole entry): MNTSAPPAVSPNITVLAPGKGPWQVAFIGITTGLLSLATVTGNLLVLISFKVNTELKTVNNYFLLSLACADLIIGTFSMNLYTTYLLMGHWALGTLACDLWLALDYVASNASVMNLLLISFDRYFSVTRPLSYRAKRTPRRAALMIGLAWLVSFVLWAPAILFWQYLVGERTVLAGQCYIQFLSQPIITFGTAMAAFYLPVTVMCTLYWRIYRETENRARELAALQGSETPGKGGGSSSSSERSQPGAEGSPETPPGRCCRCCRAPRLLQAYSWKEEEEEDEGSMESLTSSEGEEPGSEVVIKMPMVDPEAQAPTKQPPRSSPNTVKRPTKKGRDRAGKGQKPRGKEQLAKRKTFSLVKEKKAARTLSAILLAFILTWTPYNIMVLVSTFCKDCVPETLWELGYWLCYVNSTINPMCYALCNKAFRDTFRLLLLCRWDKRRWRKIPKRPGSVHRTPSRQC
It is filed as functional.

Assay [10] concerns the target T5, Type-1 angiotensin II receptor (Homo sapiens, UniProt P30556).
T5 sequence (P30556 whole entry): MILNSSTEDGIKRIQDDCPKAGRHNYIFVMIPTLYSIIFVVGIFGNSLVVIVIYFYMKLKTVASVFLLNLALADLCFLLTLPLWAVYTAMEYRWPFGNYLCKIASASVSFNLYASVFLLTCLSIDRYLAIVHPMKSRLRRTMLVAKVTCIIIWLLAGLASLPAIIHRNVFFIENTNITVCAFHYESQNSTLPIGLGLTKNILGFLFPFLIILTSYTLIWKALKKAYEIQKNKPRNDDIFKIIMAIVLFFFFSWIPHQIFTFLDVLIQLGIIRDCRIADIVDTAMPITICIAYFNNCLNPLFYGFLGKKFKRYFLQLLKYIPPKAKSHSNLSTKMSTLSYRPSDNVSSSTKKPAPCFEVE

The target of assay [11] is T6, 5-hydroxytryptamine receptor 2C (Homo sapiens, UniProt P28335).
T6 sequence (P28335 whole entry): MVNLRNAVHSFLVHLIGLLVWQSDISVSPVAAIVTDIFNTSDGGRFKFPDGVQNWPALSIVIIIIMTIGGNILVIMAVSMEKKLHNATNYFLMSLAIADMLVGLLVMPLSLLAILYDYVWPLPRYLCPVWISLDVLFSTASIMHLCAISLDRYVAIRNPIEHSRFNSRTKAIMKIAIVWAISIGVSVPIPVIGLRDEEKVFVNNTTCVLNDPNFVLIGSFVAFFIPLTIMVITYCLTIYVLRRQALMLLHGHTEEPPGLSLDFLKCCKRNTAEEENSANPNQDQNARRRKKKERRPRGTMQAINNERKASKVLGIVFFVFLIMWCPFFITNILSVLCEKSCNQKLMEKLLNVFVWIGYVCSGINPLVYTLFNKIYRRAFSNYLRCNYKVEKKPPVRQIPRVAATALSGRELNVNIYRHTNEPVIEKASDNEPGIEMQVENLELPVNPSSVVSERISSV
Further: assay procedure not described here.

Sequence of Vasopressin V2 receptor (P30518 whole entry): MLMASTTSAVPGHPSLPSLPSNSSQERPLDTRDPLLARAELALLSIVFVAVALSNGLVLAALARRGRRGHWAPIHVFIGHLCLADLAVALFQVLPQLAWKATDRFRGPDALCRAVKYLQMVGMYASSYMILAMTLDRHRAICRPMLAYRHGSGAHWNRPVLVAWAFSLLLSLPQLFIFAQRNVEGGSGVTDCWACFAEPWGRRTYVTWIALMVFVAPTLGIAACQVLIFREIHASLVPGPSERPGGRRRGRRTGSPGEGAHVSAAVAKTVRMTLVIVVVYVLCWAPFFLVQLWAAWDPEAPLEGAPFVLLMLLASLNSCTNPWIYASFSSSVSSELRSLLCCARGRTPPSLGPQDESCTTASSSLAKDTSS
Sequence of Cannabinoid receptor 1 (P21554 whole entry): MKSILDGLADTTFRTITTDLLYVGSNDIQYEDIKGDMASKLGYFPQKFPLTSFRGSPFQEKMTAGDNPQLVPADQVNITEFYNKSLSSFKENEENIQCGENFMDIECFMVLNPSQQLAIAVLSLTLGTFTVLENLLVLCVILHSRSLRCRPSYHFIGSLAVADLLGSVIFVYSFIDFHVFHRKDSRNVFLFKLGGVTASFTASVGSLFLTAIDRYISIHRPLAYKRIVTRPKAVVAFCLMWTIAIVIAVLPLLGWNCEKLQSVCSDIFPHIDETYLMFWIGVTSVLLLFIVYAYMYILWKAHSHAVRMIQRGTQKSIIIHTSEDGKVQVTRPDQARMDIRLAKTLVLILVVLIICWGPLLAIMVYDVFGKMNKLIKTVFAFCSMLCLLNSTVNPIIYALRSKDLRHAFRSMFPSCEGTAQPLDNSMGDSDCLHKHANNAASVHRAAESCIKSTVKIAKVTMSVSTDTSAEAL
Sequence of 5-hydroxytryptamine receptor 2A (P28223 whole entry): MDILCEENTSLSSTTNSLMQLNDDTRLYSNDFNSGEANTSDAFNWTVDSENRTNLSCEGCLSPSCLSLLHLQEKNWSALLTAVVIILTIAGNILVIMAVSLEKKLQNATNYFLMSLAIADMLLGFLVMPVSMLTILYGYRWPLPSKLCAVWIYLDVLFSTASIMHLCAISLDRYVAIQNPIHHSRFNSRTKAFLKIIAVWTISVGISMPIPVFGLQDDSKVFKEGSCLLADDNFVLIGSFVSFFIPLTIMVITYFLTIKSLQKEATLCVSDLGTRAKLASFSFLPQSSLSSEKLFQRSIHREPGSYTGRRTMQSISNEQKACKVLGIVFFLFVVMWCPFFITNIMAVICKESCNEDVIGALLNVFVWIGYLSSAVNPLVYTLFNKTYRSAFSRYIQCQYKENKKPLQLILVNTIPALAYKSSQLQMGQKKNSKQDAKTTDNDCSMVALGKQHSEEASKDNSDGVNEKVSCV
Sequence of Histamine H3 receptor (Q9Y5N1 whole entry): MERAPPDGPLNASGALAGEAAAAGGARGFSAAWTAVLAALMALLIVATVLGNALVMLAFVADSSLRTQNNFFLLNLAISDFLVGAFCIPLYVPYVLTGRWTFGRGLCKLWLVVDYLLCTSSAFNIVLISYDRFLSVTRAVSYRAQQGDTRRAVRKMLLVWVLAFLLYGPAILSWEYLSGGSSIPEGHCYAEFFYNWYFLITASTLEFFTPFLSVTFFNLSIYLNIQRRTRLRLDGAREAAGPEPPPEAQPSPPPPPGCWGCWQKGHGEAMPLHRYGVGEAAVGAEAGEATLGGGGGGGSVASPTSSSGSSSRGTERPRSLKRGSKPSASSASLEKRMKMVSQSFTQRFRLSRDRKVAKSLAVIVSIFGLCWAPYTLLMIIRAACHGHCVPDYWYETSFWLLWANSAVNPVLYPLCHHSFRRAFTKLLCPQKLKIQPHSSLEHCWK

The term AC50 denotes the concentration giving half of the maximal activity seen. A high value points to activity only at high concentration. For the compound `COCCOC(=O)C1=C(C)NC(C)=C(C(=O)OC/C=C/c2ccccc2)C1c1cccc([N+](=O)[O-])c1` (stereo unspecified) [CILNIDIPINE], the concentration at half-maximal activity (AC50) in assay [1], in [2], in assay [3], in assay [4], in assay [5] and in assay [6] was over 30 µM throughout. Besides, the AC50 in assay [7], in assay [8], in assay [9], in assay [10] and in assay [11] was over 30 µM in each case.
Regarding `CCC(C)(Oc1ccc(C2(c3ccc(OC(C)(CC)C(=O)O)cc3)CCCCC2)cc1)C(=O)O` (stereo unspecified) [CLINOFIBRATE], the AC50 in [1], in assay [2], in [3], in assay [4], in assay [5] and in [6] was over 30 µM in each case. Also, the AC50 in assay [7], in [8], in assay [9], in assay [10] and in assay [11] was over 30 µM throughout.
As for `CCCCC[C@H](O)/C=C/[C@H]1[C@H](O)CC(=O)[C@@H]1C/C=C\CCCC(=O)O` [DINOPROSTONE], the AC50 in assay [1], in assay [2], in assay [3], in assay [4], in assay [5] and in assay [6] was over 30 µM each time. The AC50 in [7], in [8], in [9], in [10] and in assay [11] was over 30 µM in each case.
`CC(C)c1cc2c(cc1S(=O)(=O)O)[C@@]1(C)CCC[C@@](C)(C(=O)O)[C@@H]1CC2` [ECABET]: the AC50 in assay [1], in [2], in [3], in assay [4], in assay [5] and in [6] was over 30 µM throughout. The AC50 in assay [7], in assay [8], in assay [9], in assay [10] and in assay [11] was over 30 µM throughout.
On to `CCCN(CC)C(CC)C(=O)Nc1c(C)cccc1C` (stereo unspecified) [ETIDOCAINE], for which the AC50 in [1], in [2], in assay [3], in assay [4], in assay [5] and in assay [6] was over 30 µM each time. Further, the AC50 in assay [7], in assay [8], in assay [9], in assay [10] and in assay [11] was over 30 µM each time.
As for `O=C(O)c1ccccc1Nc1cccc(C(F)(F)F)c1` [FLUFENAMIC ACID], the AC50 in assay [1] is over 10 µM; in [2] it was over 30 µM; in assay [3], over 30 µM; in assay [4], over 30 µM; in assay [5] it was over 30 µM; in assay [6] it was over 30 µM. Also, the AC50 in assay [7] was over 30 µM; in [8], over 30 µM; in [9], 0.54 µM; in [10] it was over 30 µM; in assay [11], 4.6 µM.
`O=C(O)c1ccccc1OP(=O)(O)O` [FOSFOSAL]: the AC50 in [1], in assay [2], in assay [3], in [4], in [5] and in assay [6] was over 30 µM each time. Also, the AC50 in assay [7], in assay [8], in [9], in [10] and in assay [11] was over 30 µM throughout.
Take `C#C[C@]1(O)CC[C@H]2[C@@H]3CCC4=CC(=O)CCC4=C3C=C[C@@]21CC` [GESTRINONE]: the AC50 in assay [1], in assay [2], in [3], in assay [4], in [5] and in assay [6] was over 30 µM each time. The AC50 in assay [7], in assay [8], in assay [9], in [10] and in assay [11] was over 30 µM throughout.
With `CCCCCCOC(=O)CCC(=O)CN` [HEXAMINOLEVULINATE], the AC50 in [1], in assay [2], in assay [3], in assay [4], in [5] and in assay [6] was over 30 µM throughout. Also, the concentration at half-maximal activity (AC50) was over 30 µM in assay [7]; over 30 µM in [8]; over 30 µM in assay [9]; over 30 µM in assay [10]; 24 µM in assay [11].
On to `CCCC[C@H](C)C[C@H](O)/C=C/[C@H]1[C@H](O)CC(=O)[C@@H]1CCCC/C=C/C(=O)O` [LIMAPROST], for which the AC50 in [1], in assay [2], in assay [3], in [4], in assay [5] and in assay [6] was over 30 µM each time. The AC50 in [7], in assay [8], in [9], in assay [10] and in assay [11] was over 30 µM throughout.
In the case of `Cc1ccc(NC(=O)C2(c3ccc4c(c3)OC(F)(F)O4)CC2)nc1-c1cccc(C(=O)O)c1` [LUMACAFTOR], the AC50 is over 30 µM in assay [1]; over 30 µM in [2]; over 30 µM in [3]; over 30 µM in assay [4]; over 10 µM in [5]; over 30 µM in [6]. The AC50 in assay [7], in assay [8], in assay [9], in assay [10] and in assay [11] was over 30 µM each time.
